Measured values from patent US20250040543A1, “Preservative Composition” (ARXADA AG, priority 2021, published 2025).
Where two headings read alike, the source gives them in different places.

Columns and labels:
[1] = tested on: Candida albicans; test: MIC and Synergy Index (Kull) of two-component compositions; assay type: cell-based; details: for MIC: Candida albicans
Method: (§1) A wide range of concentrations were tested against Pseudomonas aeruginosa, Staphylococcus aureus, Escherichia coli, and Candda albicans.
(§2) The lowest concentration of each mixture or single compound which prevents an observable level of growth was determined to be the minimum inhibitory concentration (MIC) value.
(§3) Serial dilutions of each mixture or single compound were prepared. Micro-organisms were inoculated into media: Nutrient Broth (bacteria) or Malt Extract Broth (yeast). The final concentrations of micro-organisms in media was approximately 10^5-6 CFU/ml. The inoculated media was introduced to each of the serial dilutions at a 1:1 ratio, and incubated at 30±1° C. for 24-48 hours.
(§4) The MICs for each mixture was compared with the MIC of each single compound alone.
(§5) In this study the end point is measured by the MIC.

[2] = tested on: Escherichia coli; test: as above; assay type: cell-based; details: for MIC: Escherichia coli
Method: as §1, §2, §3, §4
(§6) Synergy was determined using the Kull equation (F. C. Kull et. al., “Mixtures of Quaternary Ammonium Compounds and Long-chain Fatty Acids as Antifungal Agents”, Appl Microbiol. 1961 November; 9(6): 538-541), which calculates a Synergy Index (SI) according the following equation:
(§7) [formula] • wherein • QA=concentration of compound A in ppm, acting alone produced an end point, • Qa=concentration of compound A in ppm, in the mixture, which produced an end point, • QB=concentration of compound B in ppm, acting alone produced an end point, and • Qb=concentration of compound B in ppm, in the mixture, which produced an end point;
as §5

[3] = tested on: Staphylococcus aureus; test: as above; assay type: cell-based; details: for MIC: Staphylococcus aureus
Method: as §1, §2, §3, §4, §6, §7, §5

[4] = tested on: Pseudomonas aeruginosa; test: as above; assay type: cell-based; details: for MIC: Pseudomonas aeruginosa
Method: as §1, §2, §3, §4, §6, §7, §5

[5] = tested on: Aspergillus brasiliensis ATCC 16404; test: Preservation efficacy test in sterile distilled water, drop plate; assay type: cell-based; details: 7 days, Butyl Levulinate 0 ppm
Method: (§8) In the following example, the following test organisms were used: • Pseudomonas aeruginosa ATCC 9027 • Aspergillus brasiliensis ATCC 16404 [table] Mould strain spores were harvested (sterile distilled water+0.05% polysorbate 80) and treated to remove fungal hyphae. Mould strain spores were prepared in diluent (sterile distilled water) to obtain a final concentration of 1.0×10^5 to 1.0×10^5 cfu/ml. [table] […] Each sample was inoculated at t=0 with a known concentration of micro-organism. Each inoculated sample was then mixed until a homogenous mixture was obtained. […] The solution was left for 15 minutes. Subsequent dilutions were prepared by serial dilution of 0.1 ml into 0.9 ml of neutralising broth. Bacteria were serially diluted to 10^−4, Fungi were serially diluted to 10^−3. Each serial dilution was thoroughly mixed and 25 μl drops were aliquoted onto the surface of pre-prepared agar plates. Plates were prepared in sextupicate for each sample dilution. The agar plates were allowed to dry, then inverted and incubated under conditions appropriate for the test microorganisms. CFU/ml was calculated taking into account dilution factors. […] The lower and upper limits for drop plating were only employed on the highest and lowest dilution factor plates.

[6] = tested on: C. albicans; test: as above; assay type: cell-based, Candida albicans; details: 7 days, pH 7, Butyl Levulinate 0 ppm
Method: Yeast strains were harvested and prepared in diluent (sterile distilled water) to obtain a final concentration of 1.0×10^5 to 1.0×10^6 cfu/ml.
Preservation efficacy testing started at Day 0 (t=0). Each sample was inoculated at t=0 with a known concentration of micro-organism. Each inoculated sample was then mixed until a homogenous mixture was obtained. Inoculated samples were stored in the dark at 22.5±2.5° C. throughout the test period.
At the specified contact time of 7 days (t=7), test samples were deactivated by adding a 0.1 ml aliquot of the test sample to 0.9 ml of an appropriate neutralising broth. The solution was left for 15 minutes. Subsequent dilutions were prepared by serial dilution of 0.1 ml into 0.9 ml of neutralising broth. Bacteria were serially diluted to 10^−4, Fungi were serially diluted to 10^−3.
Each serial dilution was thoroughly mixed and 25 μl drops were aliquoted onto the surface of pre-prepared agar plates. Plates were prepared in sextupicate for each sample dilution.
The agar plates were allowed to dry, then inverted and incubated under conditions appropriate for the test microorganisms.
CFU/ml was calculated taking into account dilution factors. Colonies from the incubated plates were enumerated using the lower count limit of <10 CFU/ml and the upper count limit of >330 CFU/ml.
The lower and upper limits for drop plating were only employed on the highest and lowest dilution factor plates.
The test organisms were prepared and the method was performed according to the protocol of Example 1.

[7] = tested on: Pseudomonas aeruginosa ATCC 9027; test: as above; assay type: cell-based; details: 7 days, Butyl Levulinate 0 ppm
Method: as §8, with “[table] Bacteria” for “[table] Mould strain spores”, “harvested” for “harvested (sterile distilled water+0.05% polysorbate 80)”, “and” for “and treated to remove fungal hyphae. Mould strain spores were”, “of 1.0×10^6” for “of 1.0×10^5”, “to 5.0×10^6” for “to 1.0×10^5”

[8] = read-out: MIC (ppm) to inhibit growth: DHA
[9] = ethyl levulinate alone, or its concentration in the mixture with Sodium benzoate, read-out: MIC (ppm) to inhibit growth: Ethyl levulinate
[10] = ethyl levulinate alone, or its concentration in the mixture with Sodium Pyrithione
[11] = Lactic Acid alone, or its concentration in the mixture with ethyl levulinate, read-out: MIC (ppm) to inhibit growth: Lactic Acid
[12] = read-out: MIC (ppm) to inhibit growth: Potassium Sorbate
[13] = pH 7, Potassium Sorbate 5000 ppm
[14] = pH 7, Potassium Sorbate 10000 ppm
[15] = pH 7, Potassium Sorbate 15000 ppm
[16] = pH 7, Potassium Sorbate 20000 ppm
[17] = pH 7, Potassium Sorbate 25000 ppm
[18] = Sodium benzoate alone, or its concentration in the mixture with butyl levulinate
[19] = Sodium benzoate alone, or its concentration in the mixture with ethyl levulinate
[20] = pH 7, Sodium Benzoate 10000 ppm
[21] = pH 7, Sodium Benzoate 15000 ppm
[22] = pH 7, Sodium Benzoate 20000 ppm
[23] = pH 7, Sodium Benzoate 25000 ppm
[24] = pH 8, Sodium Benzoate 10000 ppm
[25] = pH 8, Sodium Benzoate 15000 ppm
[26] = pH 8, Sodium Benzoate 20000 ppm
[27] = pH 8, Sodium Benzoate 25000 ppm
[28] = Sodium Pyrithione alone, or its concentration in the mixture with ethyl levulinate
[29] = Sodium pyrithione alone, or its concentration in the mixture with butyl levulinate
[30] = ADBAC alone, or its concentration in the mixture with ethyl levulinate

`O=c1[nH]sc2ccccc12` [BIT, benzisothiazolinone, reference compound] was tested, and the “MIC (ppm) to inhibit growth: BIT” value ([1]; BIT alone, or its concentration in the mixture with butyl levulinate) was 31 ppm.

`CC(=O)C1C(=O)C=C(C)OC1=O` (stereo not drawn) [DHA, dehydroacetic acid, reference compound] was tested, and the MIC [1, 8] was 250 µg/mL and the MIC [2, 8] was 5000 µg/mL.

`CCOC(=O)CCC(C)=O` [Ethyl levulinate, ethyl levulinate] was tested, and the MIC [1, 9] was 25000 µg/mL, the “MIC (ppm) to inhibit growth: Ethyl levulinate” value ([1]; ethyl levulinate alone, or its concentration in the mixture with ADBAC) was 25000 ppm and the “MIC (ppm) to inhibit growth: Ethyl levulinate” value ([1]; ethyl levulinate alone, or its concentration in the mixture with Lactic Acid) was 25000 ppm. For the same compound, the “MIC (ppm) to inhibit growth: Ethyl levulinate” value ([1]; ethyl levulinate alone, or its concentration in the mixture with Potassium Sorbate) was 25000 ppm, the “MIC (ppm) to inhibit growth: Ethyl levulinate” value [1, 10] was 25000 ppm and the MIC ([3]; ethyl levulinate alone, or its concentration in the mixture with Lactic Acid, read-out: MIC (ppm) to inhibit growth: Ethyl levulinate) was 12500 µg/mL. It also gave an MIC ([3]; ethyl levulinate alone, or its concentration in the mixture with Potassium Sorbate, read-out: MIC (ppm) to inhibit growth: Ethyl levulinate) of 12500 µg/mL, an MIC [3, 9] of 25000 µg/mL and an MIC ([4]; ethyl levulinate alone, or its concentration in the mixture with ADBAC, read-out: MIC (ppm) to inhibit growth: Ethyl levulinate) of 12500 µg/mL. The “MIC (ppm) to inhibit growth: Ethyl levulinate” value [4, 10] was 12500 ppm and the MIC [2, 9] was 25000 µg/mL.

`CCCCNC(=O)OCC#CI` [IPBC, 3-Iodo-2-propynyl butylcarbamate, reference compound] was tested, and the Log reduction ([5]; pH 7, IPBC 100 ppm) was 1.21, the Log reduction ([5]; pH 7, IPBC 250 ppm) was 0.77 and the Log reduction ([5]; pH 7, IPBC 500 ppm) was 0.71. For the same compound, the Log reduction ([5]; pH 7, IPBC 750 ppm) was 0.57 and the Log reduction ([5]; pH 7, IPBC 1000 ppm) was 0.85.

With `CC(O)C(=O)O` (stereo not drawn) [Lactic Acid, lactic acid, reference compound] the MIC [1, 11] was 10000 µg/mL, the MIC [3, 11] was 156 µg/mL and the MIC ([4]; Lactic Acid alone, or its concentration in the mixture with butyl levulinate, read-out: MIC (ppm) to inhibit growth: Lactic Acid) was 625 µg/mL.

`C/C=C/C=C/C(=O)[O-].[K+]` [Potassium Sorbate, potassium sorbate, reference compound] was tested, and the MIC [1, 12] was 2500 µg/mL, the “MIC (ppm) to inhibit growth: Potassium Sorbate” value ([1]; Potassium Sorbate alone, or its concentration in the mixture with butyl levulinate) was 2500 ppm and the Log reduction [5, 13] was 0.58. The Log reduction [5, 14] was 0.67, the Log reduction [5, 15] was 0.45 and the Log reduction [5, 16] was 0.64. It also gave a Log reduction [5, 17] of 0.52, a Log reduction ([6]; Potassium Sorbate 5000 ppm) of 1.01 and a Log reduction ([6]; Potassium Sorbate 10000 ppm) of 0.72. The Log reduction ([6]; Potassium Sorbate 15000 ppm) was 0.72, the Log reduction ([6]; Potassium Sorbate 20000 ppm) was 0.92 and the Log reduction ([6]; Potassium Sorbate 25000 ppm) was 0.83. The Log reduction [7, 13] was under 0.03, the Log reduction [7, 14] was under 0.03 and the Log reduction [7, 15] was under 0.03. For the same compound, the Log reduction [7, 16] was over 4.55, the Log reduction [7, 17] was over 4.55 and the Log reduction ([7]; pH 8, Potassium Sorbate 5000 ppm) was under 0.33. The Log reduction ([7]; pH 8, Potassium Sorbate 10000 ppm) was under 0.33, the Log reduction ([7]; pH 8, Potassium Sorbate 15000 ppm) was under 0.33 and the Log reduction ([7]; pH 8, Potassium Sorbate 20000 ppm) was under 0.33. It also gave a Log reduction ([7]; pH 8, Potassium Sorbate 25000 ppm) of under 0.33 and an MIC [3, 12] of 156 µg/mL.

For `O=C([O-])c1ccccc1.[Na+]` [Sodium Benzoate, sodium benzoate, reference compound], the “MIC (ppm) to inhibit growth: Sodium benzoate” value [1, 18] was 7500 ppm, the “MIC (ppm) to inhibit growth: Sodium benzoate” value [1, 19] was 7500 ppm and the Log reduction ([5]; pH 7, Sodium Benzoate 5000 ppm) was 2.09. For the same compound, the Log reduction [5, 20] was 2.14, the Log reduction [5, 21] was 2.20 and the Log reduction [5, 22] was 2.33. For the same compound, the Log reduction [5, 23] was 3.11, the Log reduction ([5]; pH 8, Sodium Benzoate 5000 ppm) was 0.33 and the Log reduction [5, 24] was 0.70. For the same compound, the Log reduction [5, 25] was 0.64, the Log reduction [5, 26] was 0.60 and the Log reduction [5, 27] was 0.55. For the same compound, the Log reduction ([7]; pH 7, Sodium Benzoate 5000 ppm) was 1.73, the Log reduction [7, 20] was over 4.90 and the Log reduction [7, 21] was over 4.90. For the same compound, the Log reduction [7, 22] was over 4.90, the Log reduction [7, 23] was over 4.90 and the Log reduction ([7]; pH 8, Sodium Benzoate 5000 ppm) was 1.54. It also gave a Log reduction [7, 24] of 1.36, a Log reduction [7, 25] of 1.57 and a Log reduction [7, 26] of 3.20. For the same compound, the Log reduction [7, 27] was over 4.57, the “MIC (ppm) to inhibit growth: Sodium benzoate” value [3, 18] was 15000 ppm and the “MIC (ppm) to inhibit growth: Sodium benzoate” value [3, 19] was 15000 ppm. For the same compound, the “MIC (ppm) to inhibit growth: Sodium benzoate” value [2, 18] was 7500 ppm and the “MIC (ppm) to inhibit growth: Sodium benzoate” value [2, 19] was 7500 ppm.

`[Na+].[O-][n+]1ccccc1[S-]` [Sodium Pyrithione, sodium pyrithione, reference compound] was tested, and the “MIC (ppm) to inhibit growth: Sodium Pyrithione” value [1, 28] was 31 ppm, the “MIC (ppm) to inhibit growth: Sodium Pyrithione” value [1, 29] was 16 ppm and the “MIC (ppm) to inhibit growth: Sodium Pyrithione” value [4, 28] was 63 ppm. The “MIC (ppm) to inhibit growth: Sodium Pyrithione” value [4, 29] was 63 ppm.

With “alkyldimethylbenzylammonium chloride [ADBAC]” the “MIC (ppm) to inhibit growth: ADBAC” value [1, 30] was 8 ppm and the “MIC (ppm) to inhibit growth: ADBAC” value [4, 30] was 16 ppm.

For “poly(hexamethylene) biguanide [PHMB, reference compound]”, the “MIC (ppm) to inhibit growth: PHMB” value ([1]; PHMB alone, or its concentration in the mixture with butyl levulinate) was 313 ppm.
